In article PMC9738531, “Cholinesterases Inhibition, Anticancer and Antioxidant Activity of Novel Benzoxazole and Naphthoxazole Analogs” (Molecules, 2022):

Columns and labels:
[1] = tested on: HCV29T (bladder cancer) cells; experiment: SRB antiproliferative assay, HCV29T; assay type: cell-based, human; details: Homo sapiens, HCV29T, 72 h, means ± SD, read-out: IC50 HCV 29T
Procedure: (§1) The compounds were also evaluated for their antiproliferative potencies against human cancer cell lines as the potential anticancer agents. […]. The results are presented in Table 3 and expressed as IC50 (μM). In that score, the highest potency was shown by the analogs from the naphtho[1,2-d][1,3]oxazole group 8–10, particularly by derivative 10 with a chlorine atom on the benzenediol moiety.
(§2) In the antiproliferative assay in vitro, the following human cell lines were applied: T47D (breast cancer), SW707 (rectal adenocarcinoma), A549 (non-small cell lung carcinoma) from the American Type Culture Collection (Rockville, MD, USA) and HCV29T (bladder cancer) from the Fibiger Institute, Copenhagen, Denmark. Cytotoxicity assay was performed after 72 h exposure of the cultured cells at the concentration ranging from 0.1 to 100 μg/mL of the tested agents. The SRB test measuring the cell proliferation inhibition in the in vitro culture was applied. The cellular material fixed with TCA was stained with 0.4% sulforhodamine B (Chemie GmbH, Steinheim, Germany) dissolved in 1% acetic acid (POCh, Gliwice, Poland) for 30 min.

[2] = Lipophilicity by RP-18 HPLC chromatography; assay type: physicochemical; details: for -S (slope of log k vs MeOH fraction): MeOH/acetate buffer, pH 7.4; for log kw: pH 7.4, extrapolation to pure water as mobile phase
Description: The lipophilicity parameter was estimated for the tested compounds as it is an important feature that influences the pharmacokinetic properties of bioactive compounds [46, 47]. Lipophilicity also determines some biological activities, such as the antiproliferative or fungistatic activity. For lipophilicity determination, reversed-phase column chromatography was used, with the octadecyl C-18 stationary phase and MeOH as the organic modifier in the isocratic conditions.
HPLC measurements were performed using a liquid chromatograph (Knauer, Berlin, Germany) with a dual pump and a UV-visible detector. The measurements were made at 254 or 320 nm at room temperature. A Eurosil Bioselect C18 (5 μm, 300 × 4.6 mm) column was applied as the stationary phase. The mobile phase consisted of different volume mixtures of 20 mM acetate buffer as the aqueous phase, and MeOH as the organic modifier (pH 7.4). The different concentrations of MeOH from 0.5 to 0.90 (v/v) range was used, depending on the structure of the compound at 0.05 intervals. The flow rate was 1 mL/min. Retention time of an unretained solute (t0) was determined by the injection of a small amount of acetone dissolved in water.
Regular changes in the retention coefficients of compounds in a function of the organic modifier MeOH content in the mobile phase are described by the Soczewiński–Wachtmeister equation [56]:log k = log kw + S φ(1)
φ—the volume fraction of organic modifier (MeOH) in the mobile phase; log kw—the intercept; S—slope of the regression curve. Log kw refers to the retention parameter of a compound with pure water as the mobile phase.

[3] = tested on: A549 (non-small cell lung carcinoma) cells; experiment: SRB antiproliferative assay, A549; assay type: cell-based, human; details: Homo sapiens, A549, 72 h, means ± SD
Procedure: as §1, §2

[4] = tested on: T47D (breast cancer) cells; experiment: SRB antiproliferative assay, T47D; assay type: cell-based, human; details: Homo sapiens, T47D, 72 h, means ± SD
Procedure: as §1, §2

[5] = tested on: SW707 (rectal adenocarcinoma) cells; experiment: SRB antiproliferative assay, SW707; assay type: cell-based, human; details: Homo sapiens, SW707, 72 h, means ± SD, read-out: IC50 SW 707
Procedure: as §1, §2

[6] = tested on: normal keratinocytes HaCaT cells; experiment: LDH cytotoxicity assay, HaCaT normal cells; assay type: cell-based, human; details: 72 h
Procedure: (§3) In view of the observed antiproliferative activity, the influence of the tested compounds on the normal human cells—normal mammary gland epiterial cells of the MCF10A line and the normal keratenocytes HaCaT line—was examined (Figure 5). The cells were treated with compounds 3, 8 and 10 in the concentration range from 0.1 µM to 25 µM for 72 h, after which the cell viability was tested by analysis of the level of released lactate dehydrogenase (LDH method).
(§4) Normal human epithelial cells from the mammary gland, MCF10A (a generous gift from our colleague Dr. Saraswati Sukumar (JHU), who obtained them recently from ATCC), and normal human keratinocytes HaCaT (also obtained from ATCC), were cultured in DMEM/F12 medium (Gibco), supplemented with 5% horse serum (Gibco), 5% FBS (Sigma-Aldrich Chemie GmbH, Taufkirchen, Germany ), penicillin streptomycin solution (1×) (Gibco) at 37 °C and 5% CO2. The cells were subcultured twice a week.
(§5) Human epiterial breast cells MCF10A and human keratinocytes HaCaT (1 × 10^4/mL) cells were placed on 96-well plates (Nunc, Roskilde, Denmark). The next day, the cells were exposed to increasing concentrations of compounds 3, 8 and 10 in 0.1, 0.25, 0.5, 1, 2.5, 5, 10 and 25 μM in fresh culture medium. Cytotoxicity was estimated based on the measurements of cytoplasmic lactate dehydrogenase (LDH) activity released from the damaged cells after the 72 h exposure to the compounds. The LDH assay was performed according to the manufacturer’s instructions (Cytotoxicity Detection KitPLUS LDH, Roche, Mannheim, Germany). Absorbance was measured using a microplate at two different wavelengths: “measurement wavelength” (492 nm) and “reference wavelength” (690 nm), using a microplate.

[7] = DPPH free radical scavenging activity; details: concentration scavenging 50% of DPPH radicals; means ± SD of three experiments
Procedure: To evaluate the antioxidant potential of compounds as radical scavengers versus the stable free radicals, 2,2-diphenylpicrylhydrazyl (DPPH) was applied. Antioxidant properties were expressed as the IC50 value—the concentration of compound required for scavenging 50% of DPPH radicals. […].
The DPPH free radical scavenging activities of the synthesized compounds were measured by DPPH, according to the method described in the paper. The free radical scavenging activity was measured as a decrease in the absorbance of DPPH, and calculated using the equation:DPPH scavenging effects (%) = […] [(A0 − A1)/A0]∙100](2) where: A0 was the absorbance of the control reaction and A1 absorbance in the presence of the sample of the analysed compounds [62]. The IC50 values were calculated as the concentration of compound required for scavenging 50% of DPPH [45]. Results were presented as the mean ± standard deviation (SD). The antioxidant activity data were compared using the one-way ANOVA test at the significance level 5%.

[8] = tested on: normal mammary gland MCF10A cells; experiment: LDH cytotoxicity assay, MCF10A normal cells; assay type: cell-based, human; details: 72 h
Procedure: as §3, §4, §5

[9] = target: T1, Acetylcholinesterase (AChE, E.C. 3.1.1.7, from human erythrocytes) (Homo sapiens, UniProt P22303); experiment: biochemical
T1 construct: Acetylcholinesterase (AChE, E.C. 3.1.1.7, from human erythrocytes); purchased Sigma-Aldrich (Steinheim, Germany); host or cells: human erythrocytes (natural source)
T1 sequence (P22303 other isoform, or with tags, fused parts or gaps): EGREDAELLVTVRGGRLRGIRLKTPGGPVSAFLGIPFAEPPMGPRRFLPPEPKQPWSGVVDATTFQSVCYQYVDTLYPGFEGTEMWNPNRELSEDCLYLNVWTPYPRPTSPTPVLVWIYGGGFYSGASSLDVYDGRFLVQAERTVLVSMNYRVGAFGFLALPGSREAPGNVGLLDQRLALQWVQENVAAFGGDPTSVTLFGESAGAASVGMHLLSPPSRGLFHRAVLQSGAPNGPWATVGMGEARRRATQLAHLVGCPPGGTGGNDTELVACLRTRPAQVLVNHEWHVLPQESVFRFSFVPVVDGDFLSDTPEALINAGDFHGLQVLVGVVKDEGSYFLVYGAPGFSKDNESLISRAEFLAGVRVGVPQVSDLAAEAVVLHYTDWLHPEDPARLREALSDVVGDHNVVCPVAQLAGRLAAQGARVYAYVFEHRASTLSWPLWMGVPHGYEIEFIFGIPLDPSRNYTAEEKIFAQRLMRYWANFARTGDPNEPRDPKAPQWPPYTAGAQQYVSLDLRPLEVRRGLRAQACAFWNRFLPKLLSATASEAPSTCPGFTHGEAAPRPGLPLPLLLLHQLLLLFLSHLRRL
Procedure: (§6) The compounds were evaluated by an in vitro assay as the AChE and BChE inhibitors. The studies were carried out using the modified Ellman’s method. […] The inhibitory activities against AChE and BChE of the newly-synthesized compounds were determined exactly, according to a previous paper. […] The samples were analysed in triplicate. IC50 values were designated from a dose–response curve obtained by plotting the percentage of inhibition versus the log concentration, using GraphPad Prism 8 software. […] AChE and BChE activity data were compared using the Kruskal–Wallis test at the significance level of 1%.

[10] = target: T2, butyrylcholinesterase (BChE, E.C. 3.1.1.8, from equine serum) (Equus caballus, UniProt P81908); experiment: biochemical; details: means ± SEM of three independent experiments
T2 construct: butyrylcholinesterase (BChE, E.C. 3.1.1.8, from equine serum); purchased Sigma-Aldrich (Steinheim, Germany); host or cells: equine serum (natural source)
T2 sequence (P81908 whole entry): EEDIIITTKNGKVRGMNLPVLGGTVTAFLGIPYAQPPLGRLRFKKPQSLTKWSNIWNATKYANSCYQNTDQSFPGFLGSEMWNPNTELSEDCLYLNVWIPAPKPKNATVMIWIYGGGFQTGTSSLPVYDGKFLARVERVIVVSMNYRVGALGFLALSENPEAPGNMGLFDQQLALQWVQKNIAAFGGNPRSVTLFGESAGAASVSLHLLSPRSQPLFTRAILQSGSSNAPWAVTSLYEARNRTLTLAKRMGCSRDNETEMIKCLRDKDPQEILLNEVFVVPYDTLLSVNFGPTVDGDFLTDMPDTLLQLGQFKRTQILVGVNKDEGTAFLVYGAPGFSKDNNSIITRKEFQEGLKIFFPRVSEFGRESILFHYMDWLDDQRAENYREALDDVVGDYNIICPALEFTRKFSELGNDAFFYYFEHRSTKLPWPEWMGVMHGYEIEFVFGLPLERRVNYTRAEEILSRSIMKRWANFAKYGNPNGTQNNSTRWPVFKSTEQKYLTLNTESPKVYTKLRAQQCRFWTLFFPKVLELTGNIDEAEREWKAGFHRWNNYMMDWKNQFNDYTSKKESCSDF
Procedure: as §6

Row | SMILES | IC50 [1] [µM] | -S (slope of log k vs MeOH fraction) [2] | log kw [2] | IC50 [3] [µM] | IC50 [4] [µM] | IC50 [5] [µM] | toxicity to keratinocytes (LDH release) ([6]; HaCaT, 0.1–10 µM) | change in lactate dehydrogenase levels ([6]; HaCaT, 2.5, 5 and 10 µM, vs control) | IC50 [7] [µM] | toxicity to normal breast cells (LDH release) ([8]; 0.1–10 µM) | change in lactate dehydrogenase levels ([8]; 5 and 10 µM, vs control) | Selectivity for AChE ([9]; IC50 (BChE)/IC50 (AChE)) | IC50 ([9]; means ± SEM of three independent experiments) [µM] | IC50 [10] [µM]
1 | Oc1ccc(-c2nc3ccccc3o2)c(O)c1 [Compound 1, 4-(1,3-Benzoxazol-2-yl)benzene-1,3-diol] | 33.9 ± 4.77 | 4.358 | 3.273 |  |  |  |  |  |  |  |  |  |  | 
2 | Cc1c(O)ccc(-c2nc3ccc(O)cc3o2)c1O [Compound 2, 4-(6-Hydroxy-1,3-benzoxazol-2-yl)-2-methylbenzene-1,3-diol] | 8.34 ± 1.53 | 4.64 | 3.301 | 6.81 ± 2.23 | 5.28 ± 0.16 | 4.38 ± 1.57 |  |  |  |  |  |  |  | 
3 | COC(=O)c1ccc2nc(-c3ccc(O)cc3O)oc2c1 [Compound 3, Methyl 2-(2,4-dihydroxyphenyl)-1,3-benzoxazole-6-carboxylate] | 6.43 ± 1.12 | 5.325 | 2.92 | 4.28 ± 0.55 | 3.37 ± 1.52 | 5.47 ± 2.16 | not toxic | statistically significant reduction | 0.286 ± 0.122 | not toxic | statistically significant reduction | 10.017 | 0.113 ± 0.011 | 1.13 ± 0.016
4 | COC(=O)c1ccc2nc(-c3ccc(O)c(C)c3O)oc2c1 [Compound 4, Methyl 2-(2,4-dihydroxy-3-methylphenyl)-1,3-benzoxazole-6-carboxylate] | 4.64 ± 0.93 | 5.002 | 3.411 | 3.71 ± 0.4 | 3.2 ± 0.84 | 3.36 ± 0.84 |  |  |  |  |  |  |  | 
5 | CCc1cc(-c2nc3ccc(C(=O)OC)cc3o2)c(O)cc1O [Compound 5, Methyl 2-(5-ethyl-2,4-dihydroxyphenyl)-1,3-benzoxazole-6-carboxylate] | 3.54 ± 1.05 | 5.855 | 3.774 | 3.08 ± 0.26 | 4.11 ± 1.27 | 2.13 ± 0.49 |  |  |  |  |  |  |  | 
